Measurements published in patent publication US10768184B2, “Methods for increasing palatability of pet foodstuff” (MARS, INCORPORATED, priority 2013, dated 2020).

Experiments:
[1] = tested on: cats; assay: Cat gel panel feeding test, monadic exposure (palatability, gel intake); type: in vivo
Description: A cat gel panel was used to compare the palatability of a range of concentrations of oleic acid in a monadic exposure. The dose response tested 8 concentrations of oleic acid ranging from 0.001% oleic acid to 1% oleic acid. All products (including the blank, 0% oleic acid) contained 25 mM L-histidine as an ingestive/positive tastant to increase the baseline gel intake, enabling the identification of a potential negative impact of the oleic acid concentration. A cat gel panel was used to compare the palatability of a range of concentrations of linoleic acid in a monadic exposure. The dose response tested 8 concentrations of linoleic acid ranging from 0.001% linoleic acid to 1% linoleic acid. All products (including the blank, 0% linoleic acid) contained 25 mM L-histidine as an ingestive/positive tastant to increase the baseline gel intake, enabling the identification of a potential negative impact of the linoleic acid concentration. A cat gel panel was used to compare the palatability of a range of concentrations of lauric acid in a monadic exposure. The dose response tested 5 concentrations of lauric acid ranging from 0.05% lauric acid to 1% lauric acid. All products (including the blank, 0% lauric acid) contained 25 mM L-histidine as an ingestive/positive tastant to increase the baseline gel intake, enabling the identification of a potential negative impact of the lauric acid concentration. A cat gel panel was used to compare the palatability of a range of concentrations of palmitic acid in a monadic exposure. The dose response tested 5 concentrations of palmitic acid ranging from 0.05% palmitic acid to 1% palmitic acid. All products (including the blank, 0% palmitic acid) contained 25 mM L-histidine as an ingestive/positive tastant to increase the baseline gel intake, enabling the identification of a potential negative impact of the palmitic acid concentration.

[2] = tested on: cat GPR120; assay: Calcium-sensitive fluorescent dye (Fluo8) FLIPR assay, transiently transfected cells; type: cell-based; settings: in vitro assays with the feline receptors
Description: These constructs were then transiently transfected into the CHO K1 immortalised cell line, and other commonly used cell lines using Lipofectamine 2000 and testing was performed to establish the successful expression of the target protein. The testing was carried out using a calcium sensitive fluorescent dye (Fluo8). Transfected cells were seeded into 384 well assay plates. By loading the cells with the dye and then challenging the cells with an agonist for the receptor the response of the cells could be recorded on the FLIPR^TETRA instrument by measuring the increase in fluorescence associated with intra-cellular calcium release, thus confirming the functional expression of the receptor. Suitable experimental controls eliminate any possibility that the response of the cells is non-specific or that the fluorescence increase is due to factors other than the release of intracellular calcium by the cells.

[3] = tested on: dogs; assay: Dog panel feeding test, monadic exposure (palatability, gel intake), two single-breed panels; type: in vivo; settings: 100 mM L-histidine
Description: Two different dog panels were used to compare the palatability of concentrations of linoleic acid. Each panel was made up of a single breed of dog; each panel being a different breed. The canine panels were used to compare the palatability of a range of concentrations of linoleic acid in a monadic exposure. The dose response tested 3 concentrations of linoleic acid ranging from 0.01% linoleic acid to 1% linoleic acid. All products (including the blank, 0% linoleic acid) contained 100 mM L-histidine as an ingestive/positive tastant to increase the baseline gel intake, enabling the identification of a potential negative impact of the linoleic acid concentration. Two different dog panels were used to compare the palatability of concentrations of oleic acid. Each panel was made up of a single breed of dog; each panel being a different breed. The canine panels were used to compare the palatability of a range of concentrations of oleic acid in a monadic exposure. The dose response tested 3 concentrations of oleic acid ranging from 0.01% oleic acid to 1% oleic acid. All products (including the blank, 0% oleic acid) contained 100 mM L-histidine as an ingestive/positive tastant to increase the baseline gel intake, enabling the identification of a potential negative impact of the oleic acid concentration.

[4] = 0.1% fatty acid in gel with 25 mM L-histidine
[5] = 0.6% fatty acid in gel with 25 mM L-histidine
[6] = dog panel Breed 1, 1% fatty acid (highest tested)

Row | Compound | intake compared to the blank [1, 4] | intake compared to the blank [1, 5] | intake compared to the blank ([1]; 1% fatty acid in gel with 25 mM L-histidine) | activation of feline receptors in vitro [2] | intake compared to the blank ([1]; higher concentrations (above 0.1%, up to 1%), 25 mM L-histidine) | response compared to the blank [3, 6] | response compared to the blank ([3]; dog panel Breed 2, 3 concentrations tested, 0.01% to 1%) | intake compared to the blank ([1]; 0.2% (w/v) fatty acid in gel with 25 mM L-histidine) | intake compared to the blank ([1]; 0.3% (w/v) fatty acid in gel with 25 mM L-histidine) | response compared to the blank ([3]; dog panel Breed 2, 0.1% fatty acid) | intake compared to the blank ([1]; any of the 5 concentrations tested, 0.05% to 1%, 25 mM L-histidine)
1 | CCCCCCCCCCCC(=O)O [lauric acid] | highest intake overall | significantly aversive/negative | significantly aversive/negative |  |  |  |  |  |  |  | 
2 | CCCCC/C=C\C/C=C\CCCCCCCC(=O)O [linoleic acid] | significantly higher intake |  |  | positive activation | trend for the higher concentrations to become aversive/negative | significant positive/ingestive response | smaller differences between the linoleic acid concentrations tested |  |  |  | 
3 | CCCCCCCC/C=C\CCCCCCCC(=O)O [oleic acid] | significantly higher intake | significantly higher intake |  | positive activation |  | significant positive/ingestive response |  | significantly higher intake | significantly higher intake | significant positive/ingestive response | 
4 | CCCCCCCCCCCCCCCC(=O)O [palmitic acid] |  |  |  |  |  |  |  |  |  |  | no significant difference
